Tests used:
glucan synthase [1] = molecular target: T1, glucan synthase (Candida albicans, UniProt O13428); test: β(1,3) glucan synthase assay, C. albicans BWP17 membrane preparation (IC50); assay type: biochemical; conditions: in vitro fungal enzyme activity assay, read-out: IC50 (μg/mL) Candida albicans (converted)
T1 construct: glucan synthase sources (2 μL permeabilized PM503 cells, or 3 μL membrane preparations from either PM503, BWP17, or ND158); endogenous in cells; host or cells: C. albicans strain BWP17, 100,000 g membrane fraction
T1 sequence (O13428 1-1897): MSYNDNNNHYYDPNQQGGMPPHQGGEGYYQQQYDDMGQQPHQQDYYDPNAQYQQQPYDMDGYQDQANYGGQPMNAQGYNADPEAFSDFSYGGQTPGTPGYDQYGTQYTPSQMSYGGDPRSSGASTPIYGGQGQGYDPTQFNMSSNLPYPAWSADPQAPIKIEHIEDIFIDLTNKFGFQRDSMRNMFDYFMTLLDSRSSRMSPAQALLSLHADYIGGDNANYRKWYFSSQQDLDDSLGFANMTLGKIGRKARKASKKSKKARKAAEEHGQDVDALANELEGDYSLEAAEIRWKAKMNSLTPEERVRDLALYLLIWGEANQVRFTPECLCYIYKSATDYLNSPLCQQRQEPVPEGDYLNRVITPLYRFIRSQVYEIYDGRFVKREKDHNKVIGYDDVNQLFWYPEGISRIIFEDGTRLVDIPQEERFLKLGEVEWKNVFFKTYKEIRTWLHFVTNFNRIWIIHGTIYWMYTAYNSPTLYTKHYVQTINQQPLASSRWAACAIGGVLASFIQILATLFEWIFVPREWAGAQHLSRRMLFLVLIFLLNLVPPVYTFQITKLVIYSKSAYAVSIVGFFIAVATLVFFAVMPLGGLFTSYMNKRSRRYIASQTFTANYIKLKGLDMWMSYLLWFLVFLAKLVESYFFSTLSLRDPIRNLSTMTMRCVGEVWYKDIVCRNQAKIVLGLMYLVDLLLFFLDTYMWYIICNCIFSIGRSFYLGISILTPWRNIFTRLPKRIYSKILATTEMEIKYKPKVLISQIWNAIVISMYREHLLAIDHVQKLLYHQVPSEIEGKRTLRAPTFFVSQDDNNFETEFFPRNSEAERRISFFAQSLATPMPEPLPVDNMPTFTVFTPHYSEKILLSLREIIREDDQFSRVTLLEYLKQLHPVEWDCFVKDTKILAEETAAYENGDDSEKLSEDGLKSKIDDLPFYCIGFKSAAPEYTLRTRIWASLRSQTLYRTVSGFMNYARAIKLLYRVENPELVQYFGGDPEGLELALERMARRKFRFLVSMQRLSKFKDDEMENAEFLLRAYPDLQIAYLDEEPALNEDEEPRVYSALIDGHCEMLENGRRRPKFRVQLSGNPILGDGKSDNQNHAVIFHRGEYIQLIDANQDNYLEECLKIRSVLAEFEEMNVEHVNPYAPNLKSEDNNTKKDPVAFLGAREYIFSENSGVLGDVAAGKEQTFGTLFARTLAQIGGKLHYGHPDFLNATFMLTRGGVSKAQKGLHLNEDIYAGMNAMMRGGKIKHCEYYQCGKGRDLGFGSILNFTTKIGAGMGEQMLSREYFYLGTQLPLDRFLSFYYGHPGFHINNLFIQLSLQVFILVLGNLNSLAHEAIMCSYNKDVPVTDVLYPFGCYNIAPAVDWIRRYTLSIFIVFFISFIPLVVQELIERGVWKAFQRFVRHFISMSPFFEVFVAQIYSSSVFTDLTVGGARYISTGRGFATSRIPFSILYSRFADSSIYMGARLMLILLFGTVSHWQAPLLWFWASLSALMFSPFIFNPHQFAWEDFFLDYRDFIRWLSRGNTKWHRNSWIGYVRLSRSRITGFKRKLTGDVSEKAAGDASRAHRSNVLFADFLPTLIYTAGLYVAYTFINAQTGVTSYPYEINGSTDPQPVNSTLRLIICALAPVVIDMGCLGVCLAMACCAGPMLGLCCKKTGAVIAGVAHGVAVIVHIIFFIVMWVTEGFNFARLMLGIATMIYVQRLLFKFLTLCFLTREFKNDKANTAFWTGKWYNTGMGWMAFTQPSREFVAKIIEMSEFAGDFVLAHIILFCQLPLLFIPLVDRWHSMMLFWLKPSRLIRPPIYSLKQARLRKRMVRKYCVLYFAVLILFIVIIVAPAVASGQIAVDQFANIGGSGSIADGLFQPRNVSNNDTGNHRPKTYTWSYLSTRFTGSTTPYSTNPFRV
T1 sequence (O42825 1-195 partner limits assumed): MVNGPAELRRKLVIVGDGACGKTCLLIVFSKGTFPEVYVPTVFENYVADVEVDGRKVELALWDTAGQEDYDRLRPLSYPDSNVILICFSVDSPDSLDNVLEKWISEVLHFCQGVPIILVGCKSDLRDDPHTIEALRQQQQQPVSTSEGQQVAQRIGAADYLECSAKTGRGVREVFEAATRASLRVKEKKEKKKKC
Method: (§1) β(1,3) Glucan Synthase Assay:
(§2) 2. Preparation of Membrane Fraction of Yeast Cells
(§3) The protocol was modified from Douglas et al. (Journal of Bacteriology, 176, 5686-5696, 1994). For the preparation of S. cerevisiae and C. albicans membrane fractions, 1 liter of YPD supplemented with 0.02 mg/mL adenine and 0.08 mg/mL uracil was inoculated with 10 mL starter culture of PM503 (OD600=4) or the C. albicans strain BWP17 (OD600=12) in the same medium and grown at 30° C. until OD600 reached about 1. A. fumigatus (stain ND158) membranes were prepared by first preparing a spore suspension from agar slants by adding 6 mL of sterile saline, 0.1% Tween-20 solution to each slant, and resuspending by pipetting and scraping. The spore suspensions were used to inoculate two 200 mL flasks containing Sabouraud dextrose broth media. Cultures were incubated at 37° C., 250 rpm for ˜8 hrs. All cells, S. cerevisiae, C. albicans or A. fumigatus were harvested by centrifugation at 5,300 g at 4° C. for 40 minutes. After washing with 100 mL of breakage buffer (0.1 M KPi, pH 7.0, 1 mM EDTA, 1 mM DTT), the cell pellet was resuspended in 50 ml ice-cold breakage buffer. The mixture was transferred to a bead-beater chamber packed in ice (BioSpec Products, Bartlesville, Okla.). To each 50 mL sample was added 50 g of acid-washed glass beads ([…], Sigma). Cells were disrupted using 12×20 second pulses with 2 min-cooling intervals. Cell debris was removed by centrifugation at 3,000 g for 20 minutes at 4° C., and the supernatant was collected and centrifuged at 100,000 g for 1 hour at 4° C. to pellet the membrane fraction. The pellet was resuspended in 5 mL of ice-cold breakage buffer containing 25% glycerol, homogenized with a Dounce tissue homogenizer and stored at −80° C. in small aliquots.
(§4) 3. Glucan Synthase Assay and Compound Screening
The assay was performed according to Mo et at (Journal of Biological Chemistry, 269, 31267-31274, 1994) and Taft et al. (The Journal of Antibiotics, 47, 1001-1009, 1994), in a 96-well Optiplate (PerkinElmer). To each well was added 3 μL 10× compound stock (in 100% DMSO), or 3 μL of 30 μg/mL caspofungin in 100% DMSO (as positive control), or 3 μL 100% DMSO (as negative control), followed by the addition of appropriate amount of glucan synthase sources (2 μL permeabilized PM503 cells, or 3 μL membrane preparations from either PM503, BWP17, or ND158). The reaction was initiated by adding 25 μL reaction buffer (0.6 mM UDP-Glucose 0.6 nCi [U-^14C]DUP-Glucose (327 mCi/mmol, Amersham Bioscience), 20 μM GTP-γ-S, 25 mM NaF, 7.5 mg/mL BSA, 8% glycerol in 75 mM Tris-HCl, pH 7.5). The plate was incubated on a shaker for 1.5 hour at room temperature before being quenched with 250 μL 1% TCA (Trichloroacetic Acid). The quenched reaction was mixed by pipetting, and immediately transferred to a 96-well filter plate (Glass fiber B on 0.65 μm hydrophilic durapore membrane, Millipore) pre-wetted with wash buffer (5% TCA, 60 mM NaPPi). The glucan product was retained on the filter membrane by applying vacuum to the plate using a MultiScreen Resist Vacuum Manifold (Millipore). The filter plate was further washed 4 times with 200 μL wash buffer. The plate was dried at 50° C. for 30 minutes. 100 μL of Microscint-0 (PerkinElmer) was added to each well, and plate was counted in a TopCount NXT plate reader (PerkinElmer).
Dose-response curves were plotted from inhibition data generated. IC50 was determined by fitting the CPM versus the Concentration of the test compound plot with the following equation (4-parameter logistic model, ID Business Solutions XLfit 4.2).

glucan synthase [2] = molecular target: T2, glucan synthase (Saccharomyces cerevisiae, UniProt P38631); test: β(1,3) glucan synthase assay, S. cerevisiae PM503 permeabilized cells or membrane preparation (IC50); assay type: biochemical
T2 construct: glucan synthase sources (2 μL permeabilized PM503 cells, or 3 μL membrane preparations from either PM503, BWP17, or ND158); endogenous in cells; host or cells: S. cerevisiae strain PM503, permeabilized cells or 100,000 g membrane fraction
T2 sequence (P06780 1-206): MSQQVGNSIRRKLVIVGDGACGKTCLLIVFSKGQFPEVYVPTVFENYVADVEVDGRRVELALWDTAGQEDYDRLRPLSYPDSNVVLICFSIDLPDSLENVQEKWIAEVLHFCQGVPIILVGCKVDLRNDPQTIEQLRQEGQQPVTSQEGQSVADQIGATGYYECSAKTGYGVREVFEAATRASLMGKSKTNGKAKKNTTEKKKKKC
T2 sequence (P38631 whole entry): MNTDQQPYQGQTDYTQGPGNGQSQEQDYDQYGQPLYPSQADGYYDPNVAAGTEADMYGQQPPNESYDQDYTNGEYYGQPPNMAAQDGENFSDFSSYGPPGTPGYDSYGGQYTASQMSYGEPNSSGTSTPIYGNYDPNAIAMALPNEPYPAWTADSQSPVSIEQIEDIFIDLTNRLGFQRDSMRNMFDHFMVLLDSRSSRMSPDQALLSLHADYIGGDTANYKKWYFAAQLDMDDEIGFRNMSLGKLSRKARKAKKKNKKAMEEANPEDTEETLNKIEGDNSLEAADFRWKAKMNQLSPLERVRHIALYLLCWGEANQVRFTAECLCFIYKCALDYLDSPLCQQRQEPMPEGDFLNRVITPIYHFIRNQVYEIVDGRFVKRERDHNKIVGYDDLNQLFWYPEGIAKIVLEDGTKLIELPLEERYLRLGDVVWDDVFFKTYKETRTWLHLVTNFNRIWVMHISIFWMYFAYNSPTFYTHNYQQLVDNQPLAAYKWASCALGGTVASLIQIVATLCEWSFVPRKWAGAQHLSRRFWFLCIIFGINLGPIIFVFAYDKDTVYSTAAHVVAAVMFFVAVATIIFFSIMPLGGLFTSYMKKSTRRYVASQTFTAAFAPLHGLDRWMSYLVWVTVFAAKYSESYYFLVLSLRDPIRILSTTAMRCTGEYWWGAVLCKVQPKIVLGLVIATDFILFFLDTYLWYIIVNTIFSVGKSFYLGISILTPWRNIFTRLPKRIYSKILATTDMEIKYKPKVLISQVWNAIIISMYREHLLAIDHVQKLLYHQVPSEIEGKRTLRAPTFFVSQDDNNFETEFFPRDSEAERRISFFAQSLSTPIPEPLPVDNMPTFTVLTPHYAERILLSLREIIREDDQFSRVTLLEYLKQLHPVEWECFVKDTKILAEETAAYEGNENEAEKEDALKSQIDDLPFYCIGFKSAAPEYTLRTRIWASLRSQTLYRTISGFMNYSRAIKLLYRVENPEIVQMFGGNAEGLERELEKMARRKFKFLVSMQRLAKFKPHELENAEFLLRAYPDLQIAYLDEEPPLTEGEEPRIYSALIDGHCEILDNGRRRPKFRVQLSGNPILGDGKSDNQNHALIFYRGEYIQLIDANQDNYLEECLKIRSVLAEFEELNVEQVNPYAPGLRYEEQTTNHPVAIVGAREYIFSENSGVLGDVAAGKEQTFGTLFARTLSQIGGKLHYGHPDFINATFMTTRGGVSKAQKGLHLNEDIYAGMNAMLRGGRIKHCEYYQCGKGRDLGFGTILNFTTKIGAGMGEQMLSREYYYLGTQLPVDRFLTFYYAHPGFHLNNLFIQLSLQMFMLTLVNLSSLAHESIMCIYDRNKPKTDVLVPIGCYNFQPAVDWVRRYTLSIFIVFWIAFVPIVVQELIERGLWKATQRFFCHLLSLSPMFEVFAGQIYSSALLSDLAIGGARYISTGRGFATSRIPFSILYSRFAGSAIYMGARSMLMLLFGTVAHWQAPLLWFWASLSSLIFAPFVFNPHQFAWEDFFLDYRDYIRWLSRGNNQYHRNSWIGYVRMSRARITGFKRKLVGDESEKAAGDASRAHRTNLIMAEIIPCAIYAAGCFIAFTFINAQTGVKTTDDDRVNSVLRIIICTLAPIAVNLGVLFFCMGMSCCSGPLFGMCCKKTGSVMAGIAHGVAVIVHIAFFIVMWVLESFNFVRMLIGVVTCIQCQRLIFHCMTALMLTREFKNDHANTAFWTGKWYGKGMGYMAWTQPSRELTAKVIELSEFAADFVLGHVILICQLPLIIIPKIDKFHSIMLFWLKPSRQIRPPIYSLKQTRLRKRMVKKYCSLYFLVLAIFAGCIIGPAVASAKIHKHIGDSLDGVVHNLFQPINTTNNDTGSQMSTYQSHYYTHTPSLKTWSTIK
Method: as §1
1. Preparation of Permeabilized Saccharomyces cerevisiae Cells.
Permeabilization of yeast cells was performed according to Crotti et al. (Analytical Biochemistry, 292, 8-16, 2001) with some modifications. A 10 ml-starter culture of the S. cerevisiae strain in YPD medium (1% yeast extract, 2% bacto-peptone, 2% dextrose) with OD600=3-4 was used to inoculate 1 liter of YPD. The culture was grown at 30° C. until […]. Cells were collected by centrifugation (5,300 g for 15 min at 4° C.) and resuspended in buffer (40 mM EDTA, 100 mM β-mercaptoethanol) at 1 g of cell pellet/3.5 ml buffer. The cell suspension was shaken for 30 min at 30° C., followed by centrifugation at 12,000 g for 10 min at 4° C. The cell pellet was washed with 5 ml 0.8 M sorbitol and resuspended in 6.8 ml of 2.9 mM citric acid, 11.3 mM dibasic sodium phosphate, 1 mM EDTA, 0.8 M sorbitol, with constant shaking at 30)C for 30 min. After centrifugation at 12,000 g for […] at 4° C., the pellet was resuspended in 31.3 ml 50 mM Tris-HCl, pH 7.0, and incubated on ice for 5 min. The mixture was then centrifuged at 12,000 g for 10 min at 4 AC, and the pellet was resuspended in 1 ml of 50 mM Tris-HCl and 33% glycerol, pH 7.5. The permeabilized cell preparation was stored at […] in aliquots.
as §2, §3, §4
The assay was performed according to Mo et at (Journal of Biological Chemistry, 269, 31267-31274, 1994) and Taft et al. (The Journal of Antibiotics, 47, 1001-1009, 1994), in a 96-well Optiplate (PerkinElmer). To each well was added 3 μL 10× compound stock (in 100% DMSO), or 3 μL of 30 μg/mL caspofungin in 100% DMSO (as positive control), or 3 μL 100% DMSO (as negative control), followed by the addition of appropriate amount of glucan synthase sources (2 μL permeabilized PM503 cells, or 3 μL membrane preparations from either PM503, BWP17, or ND158). The reaction was initiated by adding 25 μL reaction buffer (0.6 mM UDP-Glucose 0.6 nCi [U-^14C]DUP-Glucose (327 mCi/mmol, Amersham Bioscience), 20 μM GTP-γ-S, 25 mM NaF, 7.5 mg/mL BSA, 8% glycerol in 75 mM Tris-HCl, pH 7.5). […]

SMILES | IC50 (glucan synthase [1]) | IC50 (glucan synthase [2])
N[C@@H](Cc1ccc(Cl)cc1)C(=O)N1CCN(c2cnn(-c3ccccc3)c(=O)c2Sc2ccc(F)cc2)CC1 [1Z] | 17700 nM | –
CCCCCCCSc1c(N2CCN(S(=O)(=O)Cc3ccccc3)CC2)cnn(-c2ccccc2)c1=O [7Z] | 2030 nM | 629 nM
CCCCCCSc1c(N2CCN(S(C)(=O)=O)CC2)cnn(-c2cc(F)cc(F)c2)c1=O [11Z] | 12700 nM | 2470 nM
CC(C)S(=O)(=O)N1CCN(c2cnn(-c3cc(F)cc(F)c3)c(=O)c2Sc2ccccc2)CC1 [19Z] | 3360 nM | 160 nM
O=c1c(N2CCOCC2)c(N2CCN(S(=O)(=O)Cc3ccccc3)CC2)cnn1Cc1c(F)cccc1Cl [30Z] | 16000 nM | 712 nM
O=c1c(Nc2ccc(F)cc2)c(N2CCN(S(=O)(=O)Cc3ccccc3)CC2)cnn1-c1cccc(Cl)c1 [47Z] | 415 nM | 45.1 nM
O=c1c(N2CCCCC2)c(N2CCN(S(=O)(=O)Cc3ccccc3)CC2)cnn1-c1ccc(F)cc1 [61Z] | 2540 nM | 625 nM
N#Cc1cccc(-c2c(N3CCN(S(=O)(=O)Cc4ccccc4)CC3)cnn(-c3cc(F)cc(F)c3)c2=O)c1 [82Z] | 822 nM | 87.7 nM
O=c1c(-c2ccc(C3CCCCC3)cc2)c(N2CCN(S(=O)(=O)Cc3ccccc3)CC2)cnn1-c1cc(F)cc(F)c1 [96Z] | 1550 nM | 364 nM
Cc1ccc(Cc2c(N3CCN(S(=O)(=O)C(C)C)CC3)cnn(-c3cc(F)cc(F)c3)c2=O)cc1 [119Z] | 1610 nM | 125 nM
CCC1(COc2c(N3CCN(S(=O)(=O)Cc4ccc(N)cc4)CC3)cnn(-c3cc(F)cc(F)c3)c2=O)CC1 [186*] | 214 nM | 89.3 nM
CC(C)NC(=O)N1CCN(c2cnn(-c3cccc(F)c3)c(=O)c2OC2Cc3ccccc3C2)CC1 [197Z] | 3870 nM | 159 nM
O=C(NCc1ccccc1)N1CCN(c2cnn(-c3cccc(Cl)c3)c(=O)c2OC2CCCC2)CC1 [204Z] | 68900 nM | 203000 nM
O=c1c(OC2CCCC2)c(N2CCN(Cc3c(Cl)cccc3Cl)CC2)cnn1-c1cccc(Cl)c1 [208Z] | 2620 nM | 206 nM
CCOCCOc1c(N2CCN(Cc3c(Cl)cccc3Cl)CC2)cnn(-c2cc(Cl)cc(Cl)c2)c1=O [214Z] | 489 nM | 1310 nM
CCOCCOc1c(N2CCN(C(=O)CC)CC2)cnn(-c2cccc(C)c2)c1=O [227Z] | 367000 nM | 367000 nM
CCCCCCCCCC(=O)N1CCN(c2cnn(-c3ccccc3)c(=O)c2OCCCCCCC)CC1 [232Z] | 15600 nM | 3810 nM

SMILES | IC50 (glucan synthase [1]) | IC50 (glucan synthase [2])
CCOCCOc1c(N2CCN(c3ncc([N+](=O)[O-])s3)CC2)cnn(-c2cccc(C)c2)c1=O [240Z] | 201000 nM | 201000 nM
CCCCCCCOc1c(N2CCN(S(=O)(=O)CC)CC2)cnn(-c2ccccc2)c1=O [244Z] | 886 nM | 201 nM
CC1(COc2c(N3CCN(S(=O)(=O)Cc4ccc5ocnc5c4)CC3)cnn(-c3cc(F)cc(F)c3)c2=O)CC1 [270*] | 35 nM | 52.5 nM
CC1(COc2c(N3CCN(S(=O)(=O)Cc4ccc(I)cc4)CC3)cnn(-c3cccc(Cl)c3)c2=O)CC1 [312*, 2-(3-chlorophenyl)-5-(4-(4-iodobenzylsulfonyl)piperazin-1-yl)-4-((1-methylcyclopropyl)methoxy)pyridazin-3(2H)-one] | 107 nM | 91.6 nM
CC(C)S(=O)(=O)N1CCN(c2cnn(-c3cccc(F)c3)c(=O)c2OC2CCCCC2)CC1 [402Z] | 794 nM | 153 nM
O=c1c(OC2CCCC2)c(N2CCN(S(=O)(=O)Cc3cc(Cl)cc(Cl)c3)CC2)cnn1-c1cccc(Cl)c1 [553Z] | 351 nM | 184 nM
Nc1ccccc1CS(=O)(=O)N1CCN(c2cnn(-c3cc(F)cc(F)c3)c(=O)c2OC2CCCC2)CC1 [738Z] | 128 nM | 73.3 nM
CC1(COc2c(N3CCN(S(=O)(=O)Cc4ccc(N)cc4)CC3)cnn(-c3cccc(Cl)c3)c2=O)CC1 [745Z] | 110 nM | 73.5 nM
CC1(COc2c(N3CCN(S(=O)(=O)Cc4cccc(N)c4)CC3)cnn(-c3cccc(Cl)c3)c2=O)CC1 [755Z] | 73.5 nM | 91.9 nM
CC1(COc2c(N3CCN(S(=O)(=O)Cc4ccc(N)cc4)CC3)cnn(-c3cc(F)cc(F)c3)c2=O)CC1 [767Z] | 238 nM | 91.6 nM
CC(C)S(=O)(=O)N1CCN(c2cnn(-c3cccc(F)c3)c(=O)c2OCCCCCCC(C)(C)F)CC1 [801Z] | 55.5 nM | 18.5 nM
O=c1c(OC2CCCC2)c(N2CCN(S(=O)(=O)NCc3ccccc3)CC2)cnn1-c1cccc(Cl)c1 [808Z] | 91.9 nM | 55.1 nM
Nc1ccc(CS(=O)(=O)N2CCN(c3cnn(-c4cccc(Cl)c4)c(=O)c3OCC3(CF)CC3)CC2)cc1 [809Z] | 196 nM | 71.2 nM
Nc1ccc(CS(=O)(=O)N2CCN(c3cnn(-c4cc(F)cc(F)c4)c(=O)c3OCC3(CF)CC3)CC2)cc1 [932Z] | 231 nM | 71 nM
CC(Oc1c(N2CCN(S(=O)(=O)Cc3cccc(N)c3)CC2)cnn(-c2cc(F)cc(F)c2)c1=O)C(C)(C)C (centres unmarked) [971Zbb] | 2850 nM | 588 nM
CS(=O)(=O)N1CCN(c2cnn(-c3cccc(Cl)c3)c(=O)c2OC2CCc3ccccc3C2)CC1 (centres unmarked) [974Z] | 641 nM | 252 nM
